Key:
Assay type in all cases: functional
T47D = experiment: Growth inhibition of human T47D cells after 48 hrs by sulforhodamine B assay
HeLa = experiment: Growth inhibition of human HeLa cells after 48 hrs by sulforhodamine B assay
A549 = experiment: Growth inhibition of human A549 cells after 48 hrs by sulforhodamine B assay; conditions: A549, 48 h
WiDr = experiment: Growth inhibition of human WiDr cells after 48 hrs by sulforhodamine B assay
SW1573 = experiment: Growth inhibition of human SW1573 cells after 48 hrs by sulforhodamine B assay; conditions: SW1573, 48 h
HBL-100 = experiment: Growth inhibition of human HBL100 cells after 48 hrs by sulforhodamine B assay; conditions: HBL-100, 48 h

Measured: GI50

CC(C)=C1C[C@@]2(C)C(=CC1=O)CCC[C@@H]2C
> 10 µM: all assays above

C[C@H]1CCCC2=CC(=O)C(C(C)(C)O)=C[C@@]21C
> 10 µM: all assays above

CC1=C2C[C@@]3(C)[C@H](C[C@@]2(O)OC1=O)C(=O)CC[C@@H]3C
> 10 µM: all assays above

CC(C)=C1C[C@@]2(C)C(=CC1=O)[C@@H](O)CC[C@@H]2C
> 10 µM: all assays above

C[C@H]1CCCC2=CC(=O)[C@H](C(C)(C)O)C[C@@]21C
> 10 µM: all assays above

CC(C)=C1C[C@@]2(C)C(=CC1=O)[C@H](O)CC[C@@H]2C
> 10 µM: all assays above

C[C@H]1CC[C@@H](O)C2=CC(=O)C(C(C)(C)O)=C[C@@]21C (relative stereo)
> 10 µM: all assays above

CC(=O)C1=C[C@@]2(C)C(=CC1=O)CCC[C@@H]2C (relative stereo)
> 10 µM: all assays above

CC(C)=C1C[C@@]2(C)[C@H](CCC(=O)[C@@H]2C)CC1=O (relative stereo)
> 10 µM: all assays above

From ChEMBL document CHEMBL4266024, “Phytochemical Study of Senecio volckmannii Assisted by CASE-3D with Residual Dipolar Couplings and Isotropic 1H/13C NMR Chemical Shifts” (2018)
